In patent US10975080B2, “Compounds and compositions for inhibiting the activity of SHP2” (NOVARTIS AG, priority 2015, dated 2021) one finds IC50 data, which are given here for 6 molecules.

For orientation: IC50 means the concentration that gives 50% inhibition.

In one assay the target is SHP2 (Homo sapiens (Human), UniProt Q06124). Put plainly: SHP2 Allosteric Inhibition Assay. The assay is classed as biochemical. Conditions: 0.5 nM SHP2 with 0.5 μM peptide IRS1_pY1172(dPEG8)pY1222; surrogate substrate DiFMUP; 25° C.; read-out: IC50. The gist of the method: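 Phosphatase activity of bis-tyrosyl-phosphopeptide-activated SHP2 was read by prompt fluorescence from DiFMUP turnover. After 30–60 min preincubation at 25 °C, DiFMUP was added for 30 min at 25 °C. IC50s came from control-normalized dose-response fitting.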
Chain of SHP2 (Q06124 whole entry): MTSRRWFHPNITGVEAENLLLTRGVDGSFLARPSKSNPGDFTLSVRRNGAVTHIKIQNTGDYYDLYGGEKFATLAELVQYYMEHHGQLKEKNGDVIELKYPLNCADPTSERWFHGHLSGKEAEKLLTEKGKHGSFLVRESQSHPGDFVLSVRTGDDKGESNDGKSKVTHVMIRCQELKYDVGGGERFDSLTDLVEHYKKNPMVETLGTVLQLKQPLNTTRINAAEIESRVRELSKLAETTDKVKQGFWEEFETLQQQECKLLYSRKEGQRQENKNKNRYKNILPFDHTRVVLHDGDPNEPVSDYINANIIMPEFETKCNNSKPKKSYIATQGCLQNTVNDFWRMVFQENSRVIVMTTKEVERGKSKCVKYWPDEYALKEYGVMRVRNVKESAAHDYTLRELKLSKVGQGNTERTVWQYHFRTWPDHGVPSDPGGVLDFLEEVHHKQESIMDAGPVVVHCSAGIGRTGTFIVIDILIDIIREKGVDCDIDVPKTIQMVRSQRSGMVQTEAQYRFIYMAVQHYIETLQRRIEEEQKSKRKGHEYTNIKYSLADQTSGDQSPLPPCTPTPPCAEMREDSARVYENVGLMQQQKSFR
Regarding `COc1nccc(-c2c[nH]c3nc(N4CCC5(CC4)CO[C@@H](C)[C@H]5N)[nH]c(=O)c23)c1Cl` [Example 10, 2-((3S,4S)-4-amino-3-methyl-2-oxa-8-azaspiro[4.5]decan-8-yl)-5-(3-chloro-2-methoxypyridin-4-yl)-3H-pyrrolo[2,3-d]pyrimidin-4(7H)-one], the IC50 is 26 nM.

The same assay, now with this note: 0.5 nM SHP2 with 0.5 μM peptide IRS1_pY1172(dPEG8)pY1222; surrogate substrate DiFMUP; 25° C.; read-out: SHP2 IC50.
Turning to `C[C@@H]1OCC2(CCN(c3nc4[nH]nc(-c5ccnc(N6CC[C@@H](O)C6)c5Cl)c4c(=O)n3C)CC2)[C@@H]1N` [Example 43, 6-((3S,4S)-4-amino-3-methyl-2-oxa-8-azaspiro[4.5]decan-8-yl)-3-(3-chloro-2-((R)-3-hydroxypyrrolidin-1-yl)pyridin-4-yl)-5-methyl-1,5-dihydro-4H-pyrazolo[3,4-d]pyrimidin-4-one], the IC50 is 84 nM.

In the case of `C[C@@H]1OCC2(CCN(c3nc4[nH]nc(-c5ccc(F)cc5)c4c(=O)n3C)CC2)[C@@H]1N` [Example 57, 6-((3S,4S)-4-amino-3-methyl-2-oxa-8-azaspiro[4.5]decan-8-yl)-3-(4-fluorophenyl)-5-methyl-1,5-dihydro-4H-pyrazolo[3,4-d]pyrimidin-4-one], the IC50 is 11 nM.

As to `CNc1nccc(-c2n[nH]c3nc(N4CCC5(CC4)C[C@@H](C)C[C@H]5N)n(C)c(=O)c23)c1Cl` [Example 77, 6-((1R,3R)-1-amino-3-methyl-8-azaspiro[4.5]decan-8-yl)-3-(3-chloro-2-(methylamino)pyridin-4-yl)-5-methyl-1,5-dihydro-4H-pyrazolo[3,4-d]pyrimidin-4-one], the IC50 turned out to be 30 nM.

Turning to `C[C@H]1C[C@@H](N)C2(CCN(c3nc4[nH]nc(-c5ccnc(N(C)C)c5Cl)c4c(=O)n3C)CC2)C1` [Example 73, 6-((1R,3R)-1-amino-3-methyl-8-azaspiro[4.5]decan-8-yl)-3-(3-chloro-2-(dimethylamino)pyridin-4-yl)-5-methyl-1,5-dihydro-4H-pyrazolo[3,4-d]pyrimidin-4-one], the IC50 turned out to be 28 nM.

`C[C@@H]1OCC2(CCN(c3nc4[nH]nc(-c5ccncc5)c4c(=O)n3C)CC2)[C@@H]1N` [Example 70, 6-((3S,4S)-4-amino-3-methyl-2-oxa-8-azaspiro[4.5]decan-8-yl)-5-methyl-3-(pyridin-4-yl)-1,5-dihydro-4H-pyrazolo[3,4-d]pyrimidin-4-one]: the IC50 was found to be 8 nM.
